Data as given in patent EP4818168A1, “FUSED RING COMPOUND, PHARMACEUTICAL COMPOSITION THEREOF AND USE THEREOF” (priority 2023, dated 2025).
pIC50: −log10 of the molar value. Read-outs that look alike come from different tables or passages of the source.

Experiments:
AURKA = target: T1, AURKA (Homo sapiens, UniProt O14965); assay type: cell-based
T1 construct: endogenous in cells; host or cells: Jurkat cells
T1 sequence (O14965 1-403): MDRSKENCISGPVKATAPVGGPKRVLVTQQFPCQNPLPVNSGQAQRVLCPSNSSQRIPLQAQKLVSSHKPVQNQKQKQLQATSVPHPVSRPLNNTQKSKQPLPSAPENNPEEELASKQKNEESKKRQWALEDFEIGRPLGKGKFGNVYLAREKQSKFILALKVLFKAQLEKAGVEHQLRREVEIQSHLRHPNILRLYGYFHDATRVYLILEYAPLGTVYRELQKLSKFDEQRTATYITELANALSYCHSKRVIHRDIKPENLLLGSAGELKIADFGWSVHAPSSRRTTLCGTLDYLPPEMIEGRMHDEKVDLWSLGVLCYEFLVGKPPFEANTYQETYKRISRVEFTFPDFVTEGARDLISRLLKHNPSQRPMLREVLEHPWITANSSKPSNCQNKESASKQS
In short: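 AURKA degradation read by western blot: band signal, fluorescent or chemiluminescent, curve-fitted to derive DC50. Cells were Jurkat, plated at 1×10^6 cells/500 µL with compound, then lysed and blotted onto nitrocellulose, primary antibody overnight at 4°C.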

H82 cells = assay: cells; assay type: cell-based; settings: Homo sapiens
In short: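 After 6 days' compound treatment at 37 °C (final DMSO 0.1%, RPMI1640/10% FBS), viable H82 cells were quantified by ATP-dependent CellTiter-Glo luminescence. Remaining activity was calculated against DMSO and medium wells, and a sigmoidal fit gave IC50.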

[1] = 100 nM compound, Jurkat cells, 24 h, Table 2
[2] = 1 µM compound, Jurkat cells, 24 h, Table 2
[3] = NCI-H82, H82 cells, 4000 cells/well, CellTiter-Glo, read-out: IC50 in H82 Cells
[4] = NCI-H82, read-out: IC50 in H82 Cells

| SMILES | Percentage of AURKA Degradation Induced by 100 nM Compound in Jurkat Cells (AURKA; [1]) | Percentage of AURKA Degradation Induced by 1 µM Compound in Jurkat Cells (AURKA; [2]) | pIC50 (H82 cells; [3]) | pIC50 (H82 cells; [4]) | Percentage of AURKA Degradation Induced by 100 nM Compound in Jurkat Cells (AURKA) | Percentage of AURKA Degradation Induced by 1 µM Compound in Jurkat Cells (AURKA) |
| --- | --- | --- | --- | --- | --- | --- |
| O=C1CCN(c2ccc(N3CCC4(CC3)CC(NC(=O)C35CC(Nc6ncc7c(n6)-c6ccc(Cl)cc6C(c6c(F)cccc6F)=NC7)(C3)C5)C4)nc2)C(=O)N1 [Compound A195] | +++ (Degradation > 70%) | +++ (Degradation > 70%) | > 6.00 | – | – | – |
| O=C1CCN(c2cncc(N3CCN(CC4CN(c5cccc(Nc6ncc7c(n6)-c6ccc(Cl)cc6C(c6c(F)cccc6F)=NC7)c5)C4)CC3)c2)C(=O)N1 [Compound A197] | +++ (Degradation > 70%) | +++ (Degradation > 70%) | > 6.00 | – | – | – |
| O=C1CCN(c2ccc(N3CCN(CC4CN(c5ccc(Nc6ncc7c(n6)-c6ccc(Cl)cc6C(c6c(F)cccc6F)=NC7)cc5)C4)CC3)nc2)C(=O)N1 [Compound A199] | +++ (Degradation > 70%) | +++ (Degradation > 70%) | > 6.00 | – | – | – |
| O=C1CCN(c2cnc(N3CC(CN4CCN(c5ccc(Nc6ncc7c(n6)-c6ccc(Cl)cc6C(c6c(F)cccc6F)=NC7)cc5)C(=O)C4)C3)s2)C(=O)N1 [Compound A203] | ++ (30% < Degradation ≤ 70%) | +++ (Degradation > 70%) | > 6.00 | – | – | – |
| O=C1CCN(c2cncc(N3CC(CN4CCc5ccc(Nc6ncc7c(n6)-c6ccc(Cl)cc6C(c6c(F)cccc6F)=NC7)cc5C4)C3)c2)C(=O)N1 [Compound A209] | +++ (Degradation > 70%) | +++ (Degradation > 70%) | – | > 6.00 | – | – |
| N#Cc1cc(Nc2ncc3c(n2)-c2ccc(Cl)cc2C(c2c(F)cccc2F)=NC3)ccc1N1CCN(C2CCN(c3ccc(N4CCC(=O)NC4=O)cn3)CC2)CC1 [Compound A211] | ++ (30% < Degradation ≤ 70%) | +++ (Degradation > 70%) | > 6.00 | – | – | – |
| O=C1CCN(c2ccc(N3CCC(N4CCN(c5ccc(Nc6ncc7c(n6)-c6ccc(Cl)cc6C(c6c(F)cccc6F)=NC7)cn5)CC4)CC3)nc2)C(=O)N1 [Compound A213] | +++ (Degradation > 70%) | +++ (Degradation > 70%) | > 6.00 | – | – | – |
| O=C1CCN(c2cncc(N3CC(CN4CCOc5ccc(Nc6ncc7c(n6)-c6ccc(Cl)cc6C(c6c(F)cccc6F)=NC7)cc5C4)C3)c2)C(=O)N1 [Compound A214] | +++ (Degradation > 70%) | + (Degradation ≤ 30%) | > 6.00 | – | – | – |
| O=C1CCN(c2ccc(N3CCC(N4CCN(C56CC(Nc7ncc8c(n7)-c7ccc(Cl)cc7C(c7c(F)cccc7F)=NC8)(C5)C6)CC4)CC3)nc2)C(=O)N1 [Compound A216] | ++ (30% < Degradation ≤ 70%) | ++ (30% < Degradation ≤ 70%) | > 6.00 | – | – | – |
| O=C1CCN(c2ccc(N3CCC(N4CCN(c5ccc(Nc6ncc7c(n6)-c6ccc(Cl)cc6C(c6c(F)cccc6F)=NC7)cc5)C5(CC5)C4)CC3)nc2)C(=O)N1 [Compound A217] | + (Degradation ≤ 30%) | + (Degradation ≤ 30%) | > 6.00 | – | – | – |
| O=C1CCN(c2ccc(N3CC(CN4CCN(C56CC(Nc7ncc8c(n7)-c7ccc(Cl)cc7C(c7c(F)cccc7F)=NC8)(C5)C6)CC4)C3)nc2)C(=O)N1 [Compound A219] | +++ (Degradation > 70%) | +++ (Degradation > 70%) | > 6.00 | – | – | – |
| O=C1CCN(c2cccc(N3CCC(N4CC5(CN(c6cccc(Nc7ncc8c(n7)-c7ccc(Cl)cc7C(c7c(F)cccc7F)=NC8)c6)C5)C4)CC3)c2)C(=O)N1 [Compound A223] | – | – | – | > 6.00 | +++ (key: +: Degradation ≤ 30%; ++: 30% < Degradation ≤ 70%; +++: Degradation > 70%) | +++ (key: +: Degradation ≤ 30%; ++: 30% < Degradation ≤ 70%; +++: Degradation > 70%) |
| CN1CCN(CC2CN(c3cncc(N4CCC(=O)NC4=O)c3)C2)Cc2cc(Nc3ncc4c(n3)-c3ccc(Cl)cc3C(c3c(F)cccc3F)=NC4)ccc21 [Compound A225] | +++ (Degradation > 70%) | + (Degradation ≤ 30%) | > 6.00 | – | – | – |
